# PubChem BioAssay AID2842 (Southern Research Institute, 2010)
# System: M. tuberculosis H37Rv growth inhibition
# Test: Mycobacterium tuberculosis H37Rv growth inhibition, putative kinase inhibitor library, confirmatory dose response (AID 2842);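 further: bacteria incubated one week before Alamar blue readout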
row,SMILES,IC90 [µg/mL]
1,CCOC(=O)c1c(NC(=O)c2cccc3ccccc23)sc2c1CCN(CC)C2,5.45
2,Cc1cc(C)c2nc(N(CCCn3ccnc3)C(=O)c3cccs3)sc2c1,1.45
3,Cc1cc(NS(=O)(=O)c2ccc(NC(=O)CCCOc3ccc(Cl)cc3)cc2)no1,19.1
4,Cc1ccc(N=Nc2c(C)[nH][nH]c2=O)cc1,10.1
5,Clc1ccc(Cn2nnc3c(SCc4cccnc4)ncnc32)cc1,13.4
6,Cc1cc(NCCCn2ccnc2)n2ncc(-c3ccccc3)c2n1,3.12
7,CCSc1ccc(C(=O)Nc2nnc(-c3ccco3)o2)cc1,0.71
8,CCSc1ccc(CC(=O)Nc2nnc(-c3ccc4c(c3)OCCO4)o2)cc1,3.57
9,Cc1ccc(C)c(-c2nnc(NC(=O)c3ccc(S(=O)(=O)N4CCc5ccccc54)cc3)o2)c1,12.4
10,Cc1ccc(NC(=O)CC2C(=O)Nc3ccccc3N2C(=O)c2ccc(Br)cc2)cc1C (stereo not drawn),2.24
11,COc1ccc(-c2nnc(NC(=O)c3cccc(C)c3)o2)cc1,87.7
12,Cc1cccc(C(=O)Nc2nnc(-c3cccnc3)o2)c1,8.87
13,Cc1ccc(-c2nnc(NC(=O)c3ccccc3Cl)o2)c(C)c1,< 0.2
14,O=C(Nc1nc(-c2cccs2)c(C(=O)C(F)(F)F)s1)c1cc(-c2ccccc2)nc2ccccc12,24.4
15,Fc1cc(F)c2nc(N3CCCC3)sc2c1,18.2
16,O=C(CCc1ccccc1)Nc1nnc(-c2cccs2)o1,42.8
17,Cc1ccc(C)c(-c2nnc(NC(=O)c3ccc(Cl)cc3Cl)o2)c1,2.21
18,NC(=O)c1c(NC(=O)c2ccc([N+](=O)[O-])s2)sc2c1CCN(Cc1ccccc1)C2,0.46
19,CCOc1ccc(NCCCn2c(C)cn3c4c(=O)[nH]c(=O)n(C)c4nc23)cc1,20.5
20,COc1ccc(Nc2c3c4c(cccc4[nH]c2=O)C(=O)c2ccccc2-3)cc1,12.4
21,O=C(CCSc1ccccc1)Nc1nc(-c2ccccn2)cs1,21.8
22,CCOc1ccc2c(c1)c1nnc(-c3ccc(OC)cc3)c-1cn2Cc1ccccc1F,4.73
23,O=C(OCn1nnc2ccccc2c1=O)c1ccco1,4.76

row,SMILES,IC90 [µg/mL]
1,Cc1ccccc1C(=O)Nc1nnc(-c2ccc(Cl)cc2)o1,0.55
2,O=C(Nc1ccc(F)cc1)Nc1nc(C(=O)N2CCN(c3ccc(F)cc3)CC2)cs1,7.09
3,Cc1ccc2c(c1)=C(c1sc(=O)[nH]c1O)C(=O)N=2,22.8
4,O=C(Nc1nnc(-c2cc(Cl)ccc2Cl)o1)c1nc2ccccc2s1,10.5
5,NC(=O)c1c(NC(=O)c2ccc([N+](=O)[O-])o2)sc2c1CCCCC2,0.52
6,Cc1ccc(N=C2NC(=O)C(Cc3ccccc3Cl)S2)cc1 (stereo not drawn),25.4
7,Cc1ccc(C)c(-c2nnc(NC(=O)c3ccc4ccccc4c3)o2)c1,18.8
8,Cc1cc(C)c(-c2csc(NC(=O)c3ccc4c(c3)OCCO4)n2)c(C)c1,7.63
9,CN(C)c1ccc(C(=O)Nc2nnc(C3=COCCO3)o2)cc1,9.01
10,Cc1ccc(C)c(-c2nnc(NC(=O)c3cc(Cl)ccc3[N+](=O)[O-])o2)c1,0.68
11,COc1ccc(NC(=O)c2cccc3nc4ccccc4nc23)c(OC)c1,4.07
12,COc1cccc2sc(Nc3nnc(-c4ccccc4)o3)nc12,6.08
13,CSc1ccc2nc(Nc3nnc(-c4ccc5c(c4)OCCO5)o3)sc2c1,15.1
14,CCOC(=O)N1CCc2c(sc(NC(=O)c3ccccc3)c2C(N)=O)C1,1.84
15,CC1CN(c2ncnc3c2c(-c2ccccc2)cn3-c2ccccc2)CC(C)O1 (stereo not drawn),29.1
16,O=C(Nc1ccc(I)cc1)c1ccc([N+](=O)[O-])s1,< 0.2
17,Cc1ccc(-c2nnc(NC(=O)c3c(F)cccc3F)o2)c(C)c1,1.25
18,Cc1ccc2sc(NNC(=O)C3COc4ccccc4O3)nc2c1C (stereo not drawn),0.88
19,COC(=O)c1ccc(C(=O)NNc2nc3ccc(Cl)cc3s2)cc1,28.9
20,CC(C)N1CCc2c(sc(NC(=O)c3cc4c(ccc5ccccc54)oc3=O)c2C(N)=O)C1,40.2
21,Cc1ccc(C(=O)c2cn(Cc3ccc(F)cc3)c3ccc(F)cc3c2=O)cc1,12.5
22,CCOc1ccc2nc(N(CCCn3ccnc3)C(=O)Cc3ccc(F)cc3)sc2c1,3.05
23,O=C(Nc1nnc(-c2cc(Cl)ccc2Cl)o1)c1cc(-c2ccccc2)nc2ccccc12,1.96

row,SMILES,IC90 [µg/mL]
1,COc1cc(-c2nnc(NC(=O)C3CCCCC3)o2)cc(OC)c1OC,18.4
2,COc1ccc(-c2nnc(SCC(=O)Nc3cc(C)on3)o2)cc1,6.72
3,O=C(CCSc1ccccc1)Nc1nnc(-c2cccs2)o1,7.87
4,O=C1N/C(=N\N=C\c2ccccc2O)SC1Cc1ccc(Br)cc1 (stereo not drawn),1.14
5,O=C(Nc1nnc(-c2ccc3c(c2)CCCC3)o1)C1=COCCO1,9.82
6,Clc1cccc(Nc2ccc(NCc3ccccc3)nn2)c1,6.71
7,Cc1ccc(-c2[nH]c3ccccc3c2SCCNC(=O)c2cc3ccccc3oc2=O)cc1,4
8,CC1CCCCN1S(=O)(=O)c1ccc(C(=O)Nc2nnc(-c3ccc(Br)cc3)o2)cc1 (stereo not drawn),17.3
9,Cc1c(C)n2c3c(=O)[nH]c(=O)n(C)c3nc2n1CCCNc1ccccc1Cl,25.4
10,O=C(Nc1nnc(-c2ccc(F)cc2)o1)c1cccc(Br)c1,93.6
11,Cc1cc(C)c2nc(NNC(=O)c3cc(-c4cccs4)nc4ccccc34)sc2c1,24.6
12,CCCCOc1cccc(C(=O)Nc2nnc(-c3ccc(C)cc3C)o2)c1,2.63
13,Cc1ccc(C)c(-c2nnc(NC(=O)c3ccccc3Cl)o2)c1,3.12
14,O=C1c2cccc3cccc(c23)C(=O)N1CCc1ccc(S(=O)(=O)N2CCCCC2)cc1,5.87
15,CS(=O)(=O)Nc1cccc(C2=NN(c3nc(-c4ccccc4)c4cc(Cl)ccc4n3)C(c3ccco3)C2)c1 (stereo not drawn),1.42
16,CCC(=O)Nc1nnc(-c2ccc(C)cc2C)o1,< 0.2
17,Cc1ccc2sc(NNC(=O)c3coc4ccccc4c3=O)nc2c1C,34.9
18,COc1cccc(/C=N/Nc2nc(=O)[nH]nc2C)c1O,0.5
19,COc1ccc2c(c1)c(=O)c(C(=O)c1ccc(C)cc1)cn2Cc1cccc(C)c1,6.97
20,COc1cc(C=NNC(=O)Nc2cccc(Cl)c2)ccc1O,8.5
21,CC(=O)Nc1ccc2nc(Nc3nc4ccc(Cl)cc4s3)sc2c1,8.93
22,O=C1C(Cl)=C(Nc2ccccc2O)C(=O)N1c1ccc(Cl)c(Cl)c1,0.84
23,CCOC(=O)c1ccc(-n2cc(O)c(C(=O)OCC)n2)cc1,20

row,SMILES,IC90 [µg/mL]
1,Cc1cc(C)c2sc(N3CCCC3)nc2c1,1.75
2,COc1ccc(C(=O)N(CCCn2ccnc2)c2nc3c(C)ccc(C)c3s2)cc1OC,17
3,O=C(CSc1nc(-c2cccc(F)c2)[nH]c1-c1ccccc1)Nc1ccc2c(c1)OCCO2,7.87
4,CCOC(=O)CNC(=O)CSc1ncnc2c1nnn2-c1ccc(OC)cc1,6.79
5,N#Cc1c(NC(=O)c2cc(Cl)ccc2Cl)sc2c1CCN(Cc1ccccc1)C2,12.3
6,c1ccc2sc(Nc3nc4cc5c(cc4s3)OCO5)nc2c1,18.6
7,O=C(Cc1ccc(F)cc1)N(CCCn1ccnc1)c1nc2ccc(F)cc2s1,3.39
8,CCOC(=O)C(C)Sc1ncnc2c1cnn2-c1ccc(F)cc1 (stereo not drawn),4.73
9,Cc1ccc(C)c(-c2nnc(NC(=O)C(C)(C)C)o2)c1,1.32
10,c1ccc(CSc2ncnc3nc[nH]c23)cc1,19.5
11,Cc1ccccc1C1C=C(c2cccs2)Nc2nc3ccccc3n21 (stereo not drawn),13.8
12,O=C(Nc1nnc(-c2cc(Cl)ccc2Cl)o1)c1ccc(Cl)s1,1.86
13,Cc1c(C#N)c(N)nc(SCC(=O)c2cc3ccccc3oc2=O)c1C#N,0.42
14,CCOC(=O)N1CCc2c(sc(NC(=O)c3ccc(Oc4ccccc4)cc3)c2C(N)=O)C1,0.98
15,COc1cc(/C=C(\C#N)c2nc(-c3ccc4c(c3)OCO4)cs2)cc([N+](=O)[O-])c1O,37.7
16,CCOC(=O)c1csc(Nc2nc3c(SC)cccc3s2)n1,3.13
17,O=C(Nc1nnc(-c2ccc3c(c2)CCCC3)o1)c1cc(Cl)sc1Cl,3.53
18,CCc1cccc2sc(N(CCCn3ccnc3)C(=O)c3cccs3)nc12,0.34
19,Cc1ccc(NC(=O)c2oc3ccccc3c2NC(=O)CCl)cc1C,10.2
20,COC(=O)C(C)Oc1ccc2cc(-c3ccc(OC)cc3)c(=O)oc2c1 (stereo not drawn),1.07
21,Cc1ccc2sc(N(CCN(C)C)C(=O)c3cccc4ccccc34)nc2c1C,11.8
22,Cc1ccc(-c2nnc(NC(=O)C3=COCCO3)o2)c(C)c1,7.35
23,CCN(CC)S(=O)(=O)c1ccc(C(=O)Nc2sccc2C(=O)NC(=O)OC)cc1,< 0.2

row,SMILES,IC90 [µg/mL]
1,O=c1cnnc(N/N=C/c2cc(Br)ccc2O)[nH]1,< 0.2
2,O=C(CN1C(=O)CCC1=O)Nc1nnc(-c2ccc3c(c2)CCCC3)o1,27.6
3,CC(C)(C)c1ccc(-n2c(=O)[nH]c3c(C(N)=O)nc(CCc4ccccc4)nc32)cc1,2.36
4,COc1ccc(-c2nnc(NC(=O)c3ccc(Cl)s3)o2)cc1,0.94
5,O=C(O)c1ccccc1NC1=C(Cl)C(=O)N(c2cccc(Cl)c2)C1=O,21.3
6,CC(C)(C)c1ccc(C(=O)Nc2nnc(-c3ccccn3)o2)cc1,8.06
7,O=C(Nc1nnc(-c2ccncc2)o1)c1cccc(C(F)(F)F)c1,28.1
8,Cc1ccc(Cn2c(N3CCN(Cc4cccc5ccccc45)CC3)nc3c2c(=O)[nH]c(=O)n3C)cc1,25.4
9,CCCc1cc(-c2nc(N)ncc2-c2ccc3c(c2)OCO3)c(O)cc1OC,17.6
10,COc1cccc(-c2nnc(NC(=O)c3ccccc3Cl)o2)c1,2.69
11,COc1ccc(Cn2cc3c(-c4ccccc4)nnc-3c3cc(OC)c(OC)cc32)cc1,6.64
12,COc1ccc(C(=O)Nc2nc3c(s2)CCCC3)c(OC)c1,6.13
13,O=C(CCOc1ccccc1)Nc1nnc(-c2cc(Cl)ccc2Cl)o1,1.79
14,c1ccc2c(c1)CCN(c1nc3cc4c(cc3s1)OCCO4)C2,16
15,CCN1CCc2c(sc(NC(=O)c3sc4ccccc4c3Cl)c2C(N)=O)C1,10.6
16,Cc1ccc(NC(=O)CC2Nc3cccc4cccc(c34)NC2=O)cc1 (stereo not drawn),61.8
17,COc1cc2c(=O)c(C(=O)c3ccc(F)cc3)cn(Cc3ccc(C)cc3)c2cc1OC,7.24
18,CSc1cccc(-c2nnc(NC(=O)c3ccc([N+](=O)[O-])s3)o2)c1,1.58
19,CCc1ccc(-c2nnc3c4cc5c(cc4n(Cc4ccccc4F)cc2-3)OCCO5)cc1,6.34
20,CCOC(=O)CNC(=O)CSc1ncnc2c1nnn2Cc1ccccc1F,3.38
21,Cc1ccc2c(c1)NC(=O)c1cc(NS(=O)(=O)c3ccc4c(c3)OCCO4)ccc1O2,17.5
